Data set [1] can be described thus: Cell cytotoxicity test: protection of HT22 cells against glutamate toxicity (EC50) and cytotoxicity of the compounds (CC50), MTT. The format is cell-based, mouse. The settings on record: mouse, HT22 cells (mouse hippocampal neuron). The protocol:
(§1) HT22 cells (mouse hippocampal neuron, Salk Institute and KRIBB) were plated in a 96-well plate at a density of 3×10^3 cells/well for 16 hrs before treatment. The cells were treated with five millimolar glutamate and various concentrations of the inventive compounds and incubated for 24 hrs in a growth media (DMEM with 10% FBS and 1% penicillin streptomycin). Then, the cells were treated with 3-(4,5-dimethylthiazol-2-yl)-2,5-diphenyltetrazolium bromide (MTT, Sigma®) for 4 hrs and absorbance of each well was measured with a plate reader at a wavelength of 450 nm. [Da-Qing, et. al., Anti-oxidant and anti-inflammatory activities of macelignan in murine hippocampal cell line and primary culture of rat microglia cells, BBRC, 2005, 331, 1264-1269].
(§2) In Table 1, EC50 is neuroprotective effect against glutamate toxicity and CC50 is cytotoxicity of the compounds. The EC50 values were statistically analyzed using Prizm® (GraphPad Software Inc., San Diego, Calif., USA).

The subject of data set [2] is HT22 cells (mouse hippocampal neuron). Described as above. The format is cell-based. As to conditions: Mus musculus, HT-22, five millimolar glutamate, 24 hrs, read-out: EC50 (neuroprotective effect against glutamate toxicity). The protocol:
as §1, §2

CC50 and EC50 data for 34 molecules are collected here from patent publication US20120122848A1, “(+)-3-HYDROXYMORPHINAN DERIVATIVES AS NEUROPROTECTANTS” (GREEN CROSS CORPORATION, priority 2009, published 2012).

Structures can show the parent of a compound that is named as a salt. Some results are limits rather than exact numbers.

By CC50 is commonly meant the concentration that lowers cell viability or growth by half. Low values mean greater toxicity to the cells, high ones lower toxicity to the cells. The EC50 is the midpoint of the concentration-response curve. Regarding `CNc1cc2c(cc1O)[C@]13CCCC[C@@H]1[C@H](C2)NCC3` [Example 18, (+)-3-Hydroxy-2-(methylamino)morphinan TFA salt], the CC50 at 24 h in data set [1] came to 59000 nM. Besides, the EC50 in data set [2] amounted to 193 nM.

In data set [1], `Oc1cc2c(cc1NCCC(F)(F)F)C[C@@H]1NCC[C@]23CCCC[C@H]13` [Example 97, (+)-3-Hydroxy-2-(3-trifluoropropylamino)morphinan TFA salt] came in with a CC50 at 24 h of 67000 nM. In addition, the EC50 in data set [2] turned out to be 183 nM.

As to `O=S(=O)(Nc1ccccc1Nc1cc2c(cc1O)[C@]13CCCC[C@@H]1[C@H](C2)NCC3)c1ccccc1` [Example 113, (+)-2-(2-(Benzenesulfonamido)phenylamino)-3-hydroxymorphinan TFA salt], in data set [1], the CC50 at 24 h came out at 3010 nM. Further, in data set [2], the EC50 was 27.2 nM.

`Oc1cc2c(cc1Nc1ccccc1N1CCCCC1)C[C@@H]1NCC[C@]23CCCC[C@H]13` [Example 128, (+)-3-Hydroxy-2-(2-(piperidin-1-yl)phenylamino)morphinan TFA salt] gave a CC50 at 24 h in data set [1] of 1600 nM. In addition, the EC50 in data set [2] stood at 35.6 nM.

For the molecule `Oc1cc2c(cc1-c1ccc(Cl)cc1Cl)C[C@@H]1NCC[C@]23CCCC[C@H]13` [Example 76, (+)-2-(2,4-Dichlorophenyl)-3-hydroxymorphinan TFA salt], in data set [1], the midpoint of cytotoxicity, the CC50 at 24 h, lay at 4400 nM. In data set [2], the EC50 is 2970 nM.

As for `CCNC(=O)Nc1ccccc1Nc1cc2c(cc1O)[C@]13CCCC[C@@H]1[C@H](C2)NCC3` [Example 120, (+)-2-(2-(Ethylureido)phenylamino)-3-hydroxymorphinan TFA salt], it took 36500 nM to reach half-maximal cytotoxicity in data set [1] (CC50 at 24 h). The EC50 in data set [2] came to 8850 nM.

On to `CCCC(CCC)Nc1cc2c(cc1O)[C@]13CCCC[C@@H]1[C@H](C2)NCC3` [Example 89, (+)-2-(Heptan-4-ylamino)-3-hydroxymorphinan TFA salt], for which the CC50 at 24 h in data set [1] was 1940 nM. The EC50 in data set [2] is 74 nM.

`CN(c1cc2c(cc1O)[C@]13CCCC[C@@H]1[C@H](C2)NCC3)c1ccccc1NS(C)(=O)=O` [Example 125, (+)-3-Hydroxy-2-(2-(methanesulfonamido)phenyl(methyl)amino)morphinan TFA salt] showed a CC50 at 24 h in data set [1] of 45900 nM. In addition, the concentration giving a half-maximal response (EC50) in data set [2] is 10900 nM.

The molecule `Oc1cc2c(cc1Nc1ccccc1-c1ccccc1)C[C@@H]1NCC[C@]23CCCC[C@H]13` [Example 60, (+)-2-(Biphenyl-2-ylamino)-3-hydroxymorphinan TFA salt] displayed a CC50 at 24 h in data set [1] of 1400 nM. In addition, the EC50 in data set [2] is 19 nM.

In data set [1], `Oc1cc2c(cc1Nc1ccc(C(F)(F)F)cc1)C[C@@H]1NCC[C@]23CCCC[C@H]13` [Example 35, (+)-3-Hydroxy-2-(4-(trifluoromethyl)phenylamino)morphinan TFA salt] yielded a CC50 at 24 h of 52800 nM. The EC50 in data set [2] came to 2590 nM.

`CCCCS(=O)(=O)Nc1ccccc1Nc1cc2c(cc1O)[C@]13CCCC[C@@H]1[C@H](C2)NCC3` [Example 112, (+)-2-(2-(Butanesulfonamido)phenylamino)-3-hydroxymorphinan TFA salt] registered a CC50 at 24 h in data set [1] of 20000 nM. Besides, in data set [2], the EC50 stood at 55.6 nM.

`CCCCNC(=O)Nc1ccccc1Nc1cc2c(cc1O)[C@]13CCCC[C@@H]1[C@H](C2)NCC3` [Example 121, (+)-2-(2-(Butylureido)phenylamino)-3-hydroxymorphinan TFA salt] yielded a CC50 at 24 h in data set [1] of 23100 nM. Also, the EC50 in data set [2] was over 100000 nM.

`CCN(C)c1ccccc1Nc1cc2c(cc1O)[C@]13CCCC[C@@H]1[C@H](C2)NCC3` [Example 131, (+)-2-(2-(Ethyl(methyl)amino)phenylamino)-3-hydroxymorphinan TFA salt] displayed a CC50 at 24 h in data set [1] of 1500 nM. The concentration for a half-maximal effect (EC50) in data set [2] turned out to be 17.7 nM.

For `Oc1cc2c(cc1Nc1cccc(F)c1)C[C@@H]1NCC[C@]23CCCC[C@H]13` [Example 39, (+)-2-(3-Fluorophenylamino)-3-hydroxymorphinan TFA salt], it took 13800 nM to reach half-maximal cytotoxicity in data set [1] (CC50 at 24 h). In addition, the EC50 in data set [2] came to 145 nM.

In data set [1], `CCOC(=O)Nc1ccccc1Nc1cc2c(cc1O)[C@]13CCCC[C@@H]1[C@H](C2)NCC3` [Example 117, (+)-2-(2-(Ethoxycarbonylamino)phenylamino)-3-hydroxymorphinan TFA salt] displayed a CC50 at 24 h of 36500 nM. Besides, the EC50 in data set [2] turned out to be 1080 nM.

`Oc1cc2c(cc1Nc1c(O)cccc1O)C[C@@H]1NCC[C@]23CCCC[C@H]13` [Example 47, (+)-2-(2,6-Dihydroxyphenylamino)-3-hydroxymorphinan TFA salt] returned a CC50 at 24 h in data set [1] of 9000 nM. Further, in data set [2], the EC50 was 275 nM.

`Oc1cc2c(cc1-c1ccc(C(F)(F)F)cc1)C[C@@H]1NCC[C@]23CCCC[C@H]13` [Example 79, (+)-3-Hydroxy-2-(4-trifluorophenyl)morphinan TFA salt] yielded a CC50 at 24 h in data set [1] of 11000 nM. Besides, the EC50 in data set [2] worked out at 6100 nM.

As for `CC(C)Nc1cc2c(cc1O)[C@]13CCCC[C@@H]1[C@H](C2)NCC3` [Example 87, (+)-3-Hydroxy-2-isopropylaminomorphinan TFA salt], the CC50 at 24 h in data set [1] is 39500 nM. Besides, the EC50 in data set [2] amounted to 35.4 nM.

For the molecule `Cc1ccc(-c2cc3c(cc2O)[C@]24CCCC[C@@H]2[C@H](C3)NCC4)cc1` [Example 75, (+)-3-Hydroxy-2-(4-methylphenyl)morphinan TFA salt], the midpoint of cytotoxicity in data set [1], the CC50 at 24 h, lay at 9400 nM. Also, the EC50 in data set [2] was 1660 nM.

`Oc1cc2c(cc1Sc1ccccc1)C[C@@H]1NCC[C@]23CCCC[C@H]13` [Example 73, (+)-3-Hydroxy-2-phenylthiomorphinan TFA salt] yielded a CC50 at 24 h in data set [1] of 5570 nM. In data set [2], the EC50 came to 1670 nM.

Consider `Oc1cc2c(cc1Nc1cccc3cccnc13)C[C@@H]1NCC[C@]23CCCC[C@H]13` [Example 66, TFA salt], for which the cytotoxic concentration (CC50) at 24 h in data set [1] stood at 2900 nM. Also, the 50% effective concentration (EC50) in data set [2] was found to be 21.3 nM.

On to `CC(C)(C)c1ccccc1Nc1cc2c(cc1O)[C@]13CCCC[C@@H]1[C@H](C2)NCC3` [Example 51, (+)-2-(2-t-Butylphenylamino)-3-hydroxymorphinan TFA salt], for which the CC50 at 24 h in data set [1] stood at 1400 nM. In data set [2], the EC50 worked out at 36 nM.

In data set [1], `CCc1ccc(Nc2cc3c(cc2O)[C@]24CCCC[C@@H]2[C@H](C3)NCC4)cc1` [Example 53, (+)-2-(4-Ethylphenylamino)-3-hydroxymorphinan TFA salt] registered a CC50 at 24 h of 1600 nM. Also, in data set [2], the EC50 was 40.2 nM.

As for `O=C(O)c1ccccc1Nc1cc2c(cc1O)[C@]13CCCC[C@@H]1[C@H](C2)NCC3` [Example 109, (+)-2-(2-Carboxyphenylamino)-3-hydroxymorphinan TFA salt], the half-maximal cytotoxic concentration (CC50) at 24 h in data set [1] was over 100000 nM. Moreover, the EC50 in data set [2] was found to be 14100 nM.

As to `CS(=O)(=O)Nc1ccc(Nc2cc3c(cc2O)[C@]24CCCC[C@@H]2[C@H](C3)NCC4)cc1` [Example 114, (+)-3-Hydroxy-2-(4-(methanesulfonamido)phenylamino)morphinan TFA salt], the CC50 at 24 h in data set [1] turned out to be 11400 nM. Besides, the EC50 in data set [2] is 32.9 nM.

In turn, `CC(C)c1ccccc1Nc1cc2c(cc1O)[C@]13CCCC[C@@H]1[C@H](C2)NCC3` [Example 50, (+)-3-Hydroxy-2-(2-isopropylphenylamino)morphinan TFA salt] showed a CC50 at 24 h in data set [1] of 1000 nM. The EC50 in data set [2] came to 43 nM.

`Oc1cc2c(cc1Nc1cc(Cl)ccc1Cl)C[C@@H]1NCC[C@]23CCCC[C@H]13` [Example 64, (+)-2-(2,5-Dichlorophenylamino)-3-hydroxymorphinan TFA salt] returned a CC50 at 24 h in data set [1] of 1900 nM. Further, the EC50 in data set [2] is 464 nM.

`CS(=O)(=O)Nc1ccccc1Nc1c(O)cc2c(c1Br)C[C@@H]1NCC[C@]23CCCC[C@H]13` [Example 132, (+)-1-Bromo-3-hydroxy-2-(2-(methanesulfonamido)phenylamino)morphinan TFA salt]: half-maximal cytotoxicity in data set [1] (CC50 at 24 h) was put at 10600 nM. Further, the EC50 in data set [2] came out at 237 nM.

`Oc1ccc(F)cc1Nc1cc2c(cc1O)[C@]13CCCC[C@@H]1[C@H](C2)NCC3` [Example 56, (+)-2-(5-Fluoro-2-hydroxyphenylamino)-3-hydroxymorphinan TFA salt] showed a CC50 at 24 h in data set [1] of 12600 nM. The EC50 in data set [2] was 354 nM.

As for `CCCN(C)c1cc2c(cc1O)[C@]13CCCC[C@@H]1[C@H](C2)NCC3` [Example 102, (+)-3-Hydroxy-2-(methylpropylamino)morphinan TFA salt], the CC50 at 24 h in data set [1] worked out at 29600 nM. In data set [2], the EC50 is 548 nM.

Molecule `NC(=O)c1ccccc1Nc1cc2c(cc1O)[C@]13CCCC[C@@H]1[C@H](C2)NCC3` [Example 61, (+)-2-(2-Carbamoylphenylamino)-3-hydroxymorphinan TFA salt] displayed a CC50 at 24 h in data set [1] of 50000 nM. The EC50 in data set [2] turned out to be 1790 nM.

In turn, `Oc1cc2c(cc1Nc1ccc3c(c1)OCCO3)C[C@@H]1NCC[C@]23CCCC[C@H]13` [Example 37, (+)-2((3,4-Ethylenedioxy)phenylamino)-3-hydroxymorphinan TFA salt] yielded a cytotoxic concentration (CC50) at 24 h in data set [1] of 14200 nM. Also, in data set [2], the EC50 was 140 nM.

Molecule `CC(C)Cc1cc2c(cc1O)[C@]13CCCC[C@@H]1[C@H](C2)NCC3` [Example 81, (+)-3-Hydroxy-2-isobutylmorphinan TFA salt] yielded a CC50 at 24 h in data set [1] of 11300 nM. Further, the EC50 in data set [2] came to 1430 nM.

In data set [1], `CC(C)c1ccc(Nc2cc3c(cc2O)[C@]24CCCC[C@@H]2[C@H](C3)NCC4)cc1` [Example 54, (+)-3-Hydroxy-2-(4-isopropylphenylamino)morphinan TFA salt] gave a CC50 at 24 h of 1500 nM. For the same molecule, the EC50 in data set [2] came out at 59.8 nM.
